“And” between values parts separate entries of the source, which are not always exact repeats. Identical values can stand only once. Like-named read-outs stand apart in the source and are kept apart here.
Experiments:
[1] = system: toxicologically relevant rat genes (rat CT array); conditions: 24 h
[2] = system: Sprague Dawley rats; conditions: for Liver Necrosis / Score (histopathology liver necrosis severity score): rat, intraperitoneal; for Liver Necrosis: 72 hours after treatment; for Score (histopathology liver necrosis severity score): 72 hours, 1 = not remarkable, 2 and higher increasing severity
Procedure, shortened: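 Toxicity calls (necrosis present or absent at 72 h) and histopathology scores were correlated with tissue gene expression from Crl:CD Sprague Dawley rats. Animals, usually 3 treated with compound by i.p. route and 3 given vehicle, were killed at 6, 24 or 72 h and tissues frozen immediately in liquid nitrogen.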

With `ClC(Cl)(Cl)Cl` [carbon tetrachloride] the “14-3-3 zeta expression (treatment/control)” value ([1]; dose 250, listed as CCL4) was 1.66 and 1.924 and 1.756, the “17-beta hydroxysteroid dehydrogenase, type 2 expression (treatment/control)” value ([1]; dose 250, listed as CCL4) was 1.054 and 0.5508 and 0.756 and the “Cathepsin L, sequence 2 expression (treatment/control)” value ([1]; dose 250, listed as CCL4) was 1.932 and 2.846 and 1.646. The “Dynamin-1 (D100) expression (treatment/control)” value ([1]; dose 250, listed as CCL4) was 0.7967 and 0.581 and 0.7391, the “Gadd45 expression (treatment/control)” value ([1]; dose 250, listed as CCL4) was 2.248 and 2.519 and 1.891 and the “Gamma-actin, cytoplasmic expression (treatment/control)” value ([1]; dose 250, listed as CCL4) was 1.21 and 1.729 and 1.683. For the same molecule, the “Insulin-like growth factor binding protein 1 expression (treatment/control)” value ([1]; dose 250, listed as CCL4) was 1.423 and 1.69 and 1.605, the “L-gulono-gamma-lactone oxidase expression (treatment/control)” value ([1]; dose 250, listed as CCL4) was 0.5457 and 0.345 and 0.5416 and the “Matrin F/G expression (treatment/control)” value ([1]; dose 250, listed as CCL4) was 0.8257 and 0.6948 and 0.7947. For the same molecule, the “Ornithine decarboxylase expression (treatment/control)” value ([1]; dose 250, listed as CCL4) was 1.229 and 1.514 and 1.453, the “PAR interacting protein expression (treatment/control)” value ([1]; dose 250, listed as CCL4) was 1.251 and 1.611 and 1.178 and the “Phase-1 RCT-33 expression (treatment/control)” value ([1]; dose 250, listed as CCL4) was 0.7. For the same molecule, the “Phase-1 RCT-36 expression (treatment/control)” value ([1]; dose 250, listed as CCL4) was 0.9183 and 0.9601, the “Phase-1 RCT-38 expression (treatment/control)” value ([1]; dose 250, listed as CCL4) was 0.6811 and 0.8069 and the “Phase-1 RCT-39 expression (treatment/control)” value ([1]; dose 250, listed as CCL4) was 1.553. The “Phase-1 RCT-40 expression (treatment/control)” value ([1]; dose 250, listed as CCL4) was 0.8329, the “Phase-1 RCT-48 expression (treatment/control)” value ([1]; dose 250, listed as CCL4) was 0.8905 and the “Phase-1 RCT-49 expression (treatment/control)” value ([1]; dose 250, listed as CCL4) was 1.595 and 1.935 and 1.969. For the same molecule, the “Phase-1 RCT-50 expression (treatment/control)” value ([1]; dose 250, listed as CCL4) was 1.199 and 1.292, the “Phase-1 RCT-68 expression (treatment/control)” value ([1]; dose 250, listed as CCL4) was 1.615 and the “Phase-1 RCT-78 expression (treatment/control)” value ([1]; dose 250, listed as CCL4) was 0.6214. For the same molecule, the “Phase-1 RCT-83 expression (treatment/control)” value ([1]; dose 250, listed as CCL4) was 0.8265 and 0.5965 and 0.5296, the “Phase-1 RCT-89 expression (treatment/control)” value ([1]; dose 250, listed as CCL4) was 0.7738 and 0.5787 and 0.6881 and the “Phase-1 RCT-92 expression (treatment/control)” value ([1]; dose 250, listed as CCL4) was 0.6412 and 0.598 and 0.6063. For the same molecule, the “Phase-1 RCT-128 expression (treatment/control)” value ([1]; dose 250, listed as CCL4) was 0.7659 and 0.5352 and 0.6882, the “Phase-1 RCT-144 expression (treatment/control)” value ([1]; dose 250, listed as CCL4) was 1.636 and 2.462 and 1.54 and the “Phase-1 RCT-145 expression (treatment/control)” value ([1]; dose 250, listed as CCL4) was 1.894. For the same molecule, the “Phase-1 RCT-180 expression (treatment/control)” value ([1]; dose 250, listed as CCL4) was 1.103, the “Phase-1 RCT-182 expression (treatment/control)” value ([1]; dose 250, listed as CCL4) was 0.5663 and 0.6692 and the “Phase-1 RCT-213 expression (treatment/control)” value ([1]; dose 250, listed as CCL4) was 1.658 and 1.455. The “Phase-1 RCT-256 expression (treatment/control)” value ([1]; dose 250, listed as CCL4) was 0.6795 and 0.8008, the “Phase-1 RCT-264 expression (treatment/control)” value ([1]; dose 250, listed as CCL4) was 0.5556 and 0.3693 and 0.5559 and the “Phase-1 RCT-288 expression (treatment/control)” value ([1]; dose 250, listed as CCL4) was 0.6979 and 0.5773 and 0.6386. For the same molecule, the “Phase-1 RCT-291 expression (treatment/control)” value ([1]; dose 250, listed as CCL4) was 0.7629 and 0.7701, the “Phase-1 RCT-295 expression (treatment/control)” value ([1]; dose 250, listed as CCL4) was 1.942 and 1.579 and the “Ribosomal protein S17 expression (treatment/control)” value ([1]; dose 250, listed as CCL4) was 1.826 and 2.664 and 2.129. For the same molecule, the “Senescence marker protein-30 expression (treatment/control)” value ([1]; dose 250, listed as CCL4) was 0.7864 and 0.5048 and 0.8299, the “Zinc finger protein expression (treatment/control)” value ([1]; dose 250, listed as CCL4) was 1.078 and 1.318 and 1.451 and the “14-3-3 zeta expression (treatment/control)” value ([1]; dose 1000) was 2.165. For the same molecule, the “17-beta hydroxysteroid dehydrogenase, type 2 expression (treatment/control)” value ([1]; dose 1000) was 0.5477, the “Cathepsin L, sequence 2 expression (treatment/control)” value ([1]; dose 1000) was 4.767 and the “Dynamin-1 (D100) expression (treatment/control)” value ([1]; dose 1000) was 0.4373. For the same molecule, the “Gadd45 expression (treatment/control)” value ([1]; dose 1000) was 2.03, the “Gamma-actin, cytoplasmic expression (treatment/control)” value ([1]; dose 1000) was 2.857 and the “Insulin-like growth factor binding protein 1 expression (treatment/control)” value ([1]; dose 1000) was 2.908. For the same molecule, the “L-gulono-gamma-lactone oxidase expression (treatment/control)” value ([1]; dose 1000) was 0.2874, the “Matrin F/G expression (treatment/control)” value ([1]; dose 1000) was 0.5748 and the “Ornithine decarboxylase expression (treatment/control)” value ([1]; dose 1000) was 2.004. The “PAR interacting protein expression (treatment/control)” value ([1]; dose 1000) was 1.736, the “Phase-1 RCT-33 expression (treatment/control)” value ([1]; dose 1000) was 0.4824 and the “Phase-1 RCT-36 expression (treatment/control)” value ([1]; dose 1000) was 0.6382. The “Phase-1 RCT-38 expression (treatment/control)” value ([1]; dose 1000) was 0.5871, the “Phase-1 RCT-39 expression (treatment/control)” value ([1]; dose 1000) was 1.821 and the “Phase-1 RCT-40 expression (treatment/control)” value ([1]; dose 1000) was 0.7596. For the same molecule, the “Phase-1 RCT-48 expression (treatment/control)” value ([1]; dose 1000) was 0.9803, the “Phase-1 RCT-49 expression (treatment/control)” value ([1]; dose 1000) was 2.488 and the “Phase-1 RCT-50 expression (treatment/control)” value ([1]; dose 1000) was 1.792. The “Phase-1 RCT-68 expression (treatment/control)” value ([1]; dose 1000) was 1.656, the “Phase-1 RCT-78 expression (treatment/control)” value ([1]; dose 1000) was 0.5578 and the “Phase-1 RCT-83 expression (treatment/control)” value ([1]; dose 1000) was 0.3247. For the same molecule, the “Phase-1 RCT-89 expression (treatment/control)” value ([1]; dose 1000) was 0.4606, the “Phase-1 RCT-92 expression (treatment/control)” value ([1]; dose 1000) was 0.3009 and the “Phase-1 RCT-128 expression (treatment/control)” value ([1]; dose 1000) was 0.3095. For the same molecule, the “Phase-1 RCT-144 expression (treatment/control)” value ([1]; dose 1000) was 2.627, the “Phase-1 RCT-145 expression (treatment/control)” value ([1]; dose 1000) was 1.753 and the “Phase-1 RCT-180 expression (treatment/control)” value ([1]; dose 1000) was 1.291. For the same molecule, the “Phase-1 RCT-182 expression (treatment/control)” value ([1]; dose 1000) was 0.3598, the “Phase-1 RCT-207 expression (treatment/control)” value ([1]; dose 1000) was 2.086 and the “Phase-1 RCT-213 expression (treatment/control)” value ([1]; dose 1000) was 1.988. The “Phase-1 RCT-256 expression (treatment/control)” value ([1]; dose 1000) was 0.6382, the “Phase-1 RCT-264 expression (treatment/control)” value ([1]; dose 1000) was 0.2087 and the “Phase-1 RCT-288 expression (treatment/control)” value ([1]; dose 1000) was 0.4221. For the same molecule, the “Phase-1 RCT-291 expression (treatment/control)” value ([1]; dose 1000) was 0.5561, the “Phase-1 RCT-295 expression (treatment/control)” value ([1]; dose 1000) was 2.11 and the “Phase-1 RCT-296 expression (treatment/control)” value ([1]; dose 1000) was 0.2278. The “Ribosomal protein S17 expression (treatment/control)” value ([1]; dose 1000) was 3.461, the “Senescence marker protein-30 expression (treatment/control)” value ([1]; dose 1000) was 0.2057 and the “Zinc finger protein expression (treatment/control)” value ([1]; dose 1000) was 1.697. For the same molecule, the “Liver Toxicity Necrosis Classification” value ([2]; 72 h, dose 250) was “yes”, the “Liver Toxicity Necrosis Classification” value ([2]; 72 h, dose 1000) was “yes” and the “Liver Toxicity Necrosis Classification” value ([2]; compound-dose group at 72 h, CCL4 1000, DMN 20, LPS 8) was “yes”. The “Liver Toxicity Necrosis Classification” value ([2]; compound-dose group at 72 h, dose 250) was “yes”, the “Liver Toxicity Necrosis Classification” value ([2]; compound-dose group at 72 h, dose 1000) was “yes” and the “Liver Toxicity Necrosis Classification” value ([2]; compound-dosegroup at 72 h, dose 250) was “yes”. The “Liver Toxicity Necrosis Classification” value ([2]; compound-dosegroup at 72 h, dose 1000) was “yes”, the “Liver Necrosis” value ([2]; dose 0.25 ml/kg) was “Yes” and the “Score (histopathology liver necrosis severity score)” value ([2]; dose 0.25 ml/kg) was 3. The “Liver Necrosis” value ([2]; dose 1 ml/kg) was “Yes” and the “Score (histopathology liver necrosis severity score)” value ([2]; dose 1 ml/kg) was 6.
